In ChEMBL document CHEMBL4414637, “Resorcinosides A and B, Glycosylated Alkylresorcinols from a Marine-Derived Strain of the Fungus Penicillium janthinellum” (2019):
Counter-ions that a name gives are not always drawn.

Assays:
Assay type in all cases: functional
HCT-15 = assay: Cytotoxicity against human HCT15 cells assessed as cell growth inhibition measured after 48 hrs by SRB assay; details: HCT-15, 48 h
NUGC-3 = assay: Cytotoxicity against human NUGC3 cells assessed as cell growth inhibition measured after 48 hrs by SRB assay; details: NUGC-3, 48 h
NCI-H23 = assay: Cytotoxicity against human NCI-H23 cells assessed as cell growth inhibition measured after 48 hrs by SRB assay; details: NCI-H23, 48 h
ACHN = assay: Cytotoxicity against human ACHN cells assessed as cell growth inhibition measured after 48 hrs by SRB assay
PC-3 = assay: Cytotoxicity against human PC3 cells assessed as cell growth inhibition measured after 48 hrs by SRB assay; details: PC-3, 48 h
MDA-MB-231 = assay: Cytotoxicity against human MDA-MB-231 cells assessed as cell growth inhibition measured after 48 hrs by SRB assay; details: MDA-MB-231, 48 h

Compound CC[C@H](C)[C@@H](CCCCCCC/C=C/C=C/CCc1cc(O)cc(O)c1)O[C@H]1O[C@H](CO)[C@@H](O)[C@H](O)[C@H]1O has a GI50 (HCT-15) of 19 µM, a GI50 (NUGC-3) of 9.3 µM and a GI50 (NCI-H23) of 24 µM. For the same compound, the GI50 (ACHN) was 31 µM, the GI50 (PC-3) was 21 µM and the GI50 (MDA-MB-231) was 25 µM.
Compound COc1cccc2c1C(=O)c1c(O)c3c(c(O)c1C2=O)C[C@@](O)(C(=O)CO)C[C@@H]3O[C@H]1C[C@H](N)[C@H](O)[C@H](C)O1 [DOXORUBICIN HYDROCHLORIDE] has a GI50 (HCT-15) of 0.14 µM, a GI50 (NUGC-3) of 0.15 µM and a GI50 (NCI-H23) of 0.14 µM. It also gave a GI50 (ACHN) of 0.13 µM, a GI50 (PC-3) of 0.14 µM and a GI50 (MDA-MB-231) of 0.15 µM.
Compound CC[C@H](C)[C@@H](CCCCCCC/C=C/C=C/CCc1cc(O)cc(O)c1Cc1c(O)cc(C)oc1=O)O[C@H]1O[C@H](CO)[C@@H](O)[C@H](O)[C@H]1O has a GI50 (HCT-15) greater than 50 µM, a GI50 (NUGC-3) greater than 50 µM and a GI50 (NCI-H23) greater than 50 µM. It also gave a GI50 (ACHN) greater than 50 µM, a GI50 (PC-3) greater than 50 µM and a GI50 (MDA-MB-231) greater than 50 µM.
